According to article PMC6200933, “Identification of a Kdn biosynthesis pathway in the haptophyte Prymnesium parvum suggests widespread sialic acid biosynthesis among microalgae” (The Journal of Biological Chemistry, 2018):
Read-outs that look alike come from different tables or passages of the source.

Assays:
[1] = molecular target: T1, B. thetaiotaomicron VPI-5482 Kdn-9-P phosphatase (Bacteroides thetaiotaomicron, UniProt Q8A712); assay: […] NMR coupled assay, Kdn-9-P generated in situ by P. parvum Kdn-9-P synthetase; assay type: biochemical; details: coupled with Kdn-9-P synthetase, 10 mM PEP, 8 mM Man-6-P, 2 mM MgCl2, 50 mM HEPES pD 7.5, 1 h
T1 construct: gene BT_1713
T1 sequence (Q8A712 whole entry, change not shown): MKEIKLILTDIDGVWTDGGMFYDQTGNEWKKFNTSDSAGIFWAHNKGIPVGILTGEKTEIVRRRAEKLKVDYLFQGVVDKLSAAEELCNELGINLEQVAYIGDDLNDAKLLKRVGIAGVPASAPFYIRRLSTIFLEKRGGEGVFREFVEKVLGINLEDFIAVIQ

[2] = system: T2, Kdn-9-P synthetase (CAMPEP_0191217894); assay: BioMol Green colorimetric phosphate-release assay, Michaelis-Menten; assay type: biochemical, Prymnesium parvum; details: 50 mM HEPES pH 7.5, 2 mM MgCl2, 25 °C
T2 construct: no truncation stated

For `O=C(O)C1(O)C[C@H](O)[C@@H](O)[C@H]([C@H](O)[C@H](O)COP(=O)(O)O)O1` (stereo partly drawn) [Kdn-9-P], the “31P NMR coupled assay, Kdn-9-P generated in situ by P. parvum Kdn-9-P synthetase” value [1] was “is accepted by B. thetaiotaomicron VPI-5482 Kdn-9-P phosphatase”.
With `O=P(O)(O)OC[C@H]1OC(O)[C@@H](O)[C@@H](O)[C@@H]1O` (stereo partly drawn) [Man-6-P] the Km ([2]; 100 μM PEP, read-out: (Man-6-P)Km) was 63.6 ± 10.5 µM.
`C=C(OP(=O)(O)O)C(=O)O` [PEP] was tested, and the Km ([2]; 100 μM Man-6-P, read-out: (PEP)Km) was 18.3 ± 1.8 µM.
